Assay type in all cases: in vivo, mouse
Experiment [1] relates to tibialis anterior muscle of muscle atrophy model. As to the kind of experiment: Muscle atrophy model (hindlimb fixation): muscle weight and muscle fiber cross-sectional area. Particulars: intramuscular. From the text: (§1) Seven-week old C57BL/6 Male mice (CLEA Japan, Inc.) were purchased, and used for experiment at the age of 8 weeks.
A model animal to which muscle atrophy had been caused by a method of fixing a hindlimb (J Appl Physiol, vol. 106, pp. 2049-2059, 2009) was used.
(§2) Under the anesthesia with isoflurane, the left hindlimb of the mouse in a bent state was fixed with a surgical stapler (Kaiser Plus. KEISEI MEDICAL INDUSTRIAL CO., LTD.). The right hindlimb of the same mouse was assigned to the sham-treatment side, and no fixation treatment was performed. After 3 or 7 days of the start of fixation, the tibialis anterior muscle (one of skeletal muscles) was collected by dissection. The sample collected after 3 days was supplied to the expression analysis of the muscle atrophy-related genes, and the sample collected after 7 days was supplied to the measurement of a muscle weight and the preparation of a muscle tissue section.
(§3) Body weight of the mouse was measured before collecting the tibialis anterior muscle. Furthermore, the weight of the collected tibialis anterior muscle was measured. From these measured values, the ratio (%) of the skeletal muscle weight per body weight of the mouse (weight of tibialis anterior muscle/body weight of mouse) was calculated.
(§4) Immediately after the collection of the tibialis anterior muscle, the tibialis anterior muscle was immersed in isopentane cooled with liquid nitrogen and was rapidly frozen. The frozen muscle tissue was cut into slices each having a thickness of 10 μm by using a cryostat (Leica Biosystems), and the slice was attached onto an antistripping coated slide glass (Matsunami Glass Ind., Ltd.).
A muscle tissue section was sufficiently air dried for 30 minutes under room temperature. After that, the muscle tissue sections was fixed by immersing it in acetone cooled to −30° C. and treating at −30° C. for 20 minutes. The fixed sections was air dried once and washed with PBS. Then the section was blocked by dropwisely adding a blocking reagent (Blocking One. NACALAI TESQUE, INC.) to the section and subjected to the blocking treatment for 1 hour. Next, a primary antibody (Anti-laminin-2 (α-2 Chain) antibody Rat monoclonal (Sigma-Aldrich)) obtained by being diluted 500 times with a blocking reagent was added dropwise, and the reaction was conducted at overnight at 4° C. Since laminin to which a primary antibody binds is a protein expressed in the basement membranes of all muscle cells, the laminin was used in this experiment as an index in order to measure the area of individual muscle cells in a section. The muscle tissue section after the reaction with the primary antibody was washed with PBS, and then was reacted for 1 hour with a secondary antibody (CF 488A Goat Anti-Rat IgG (H+L) (Biotium)) obtained by being diluted 500 times with the blocking reagent. The secondary antibody that is an anti-rat antibody conjugated with a fluorescent dye binds to the primary antibody, and stains the laminin. […] Set with DAPI” (Vector), and then the fluorescence observation was performed with an inverted microscope FSX100 (Olympus).
The muscle fiber cross-sectional area was measured basis of the image data taken from the fluorescence observation. After the image data was taken into image analysis software ImageJ (NIH), the cross-sectional area of the individual cells were measured on the basis of the cell membrane stained with laminin. […]

Experiment [2] relates to Trim63 (MuRF1) mRNA expression. Put plainly: Expression analysis of muscle atrophy-related gene Trim63 in muscle atrophy model. The following applies: 3 days. The protocol:
as §2
(§5) The tibialis anterior muscle was homogenized with Sepasol-RNA I Super G (NACALAI TESQUE, INC.), 1-bromo-3-chloropropane was added thereto, the mixture was stirred, and further centrifuged, then RNA was extracted from the supernatant. The extracted RNA was recovered with 2-propanol and 75% ethanol, and then subjected to the reverse transcription reaction (using ReverTra Ace qPCR RT Master Mix (Toyobo Co., Ltd.) according to the attached protocol) to synthesize cDNA. The synthesized CDNA was subjected to the real-time PCR method (using Applied Biosystems 7500 Real-Time PCR System (Thermo Fisher Scientific)) to measure mRNA expression of three genes, Trim63 (MuRF1), myostatin (Mstn), and Gapdh. Primer sequences used are as follows.
(§6) The expression levels of mRNA of Trim63 and Mstn (mTrim63 and mMstn) were calculated as a ratio to the expression level of mRNA of Gapdh (mGapdh). […]
(§7) Spermidine trihydrochloride (SPD) was administered to muscle atrophy model animals by three administration routes, and the expression variations of muscle atrophy-related genes Trim63 and Mstn were measured. […]
(§8) The mRNA expression of Trim63 and Mstn in the tibialis anterior muscle of the left hindlimb (fixed: Staple) and the right hindlimb (sham treatment: Sham) collected after 3 days of the start of fixation was measured.

Experiment [3] concerns myostatin (Mstn) mRNA expression. Put plainly: Expression analysis of muscle atrophy-related gene Mstn in muscle atrophy model. The following applies: 3 days. As for the experimental part: as §2, §5, §6, §7, §8
Experiment [4] relates to tibialis anterior muscle of muscle damage model (CTX). As to the kind of experiment: Muscle damage model (cardiotoxin): muscle weight and regenerated muscle fiber cross-sectional area. The following applies: 7 days after CTX. The protocol:
as §1
A model animal to which muscle damage had been caused by administion of snake venom cardiotoxin (CTX) was used. The model animal has been widely used in studies on regeneration from muscle damage.
Under the anesthesia with isoflurane, 50 μL of 10 μM CTX was administered to the tibialis anterior muscle of the right hindlimb of the mouse. Fifty μL of a phosphate buffer (PBS) was administered as a Vehicle to the tibialis anterior muscle of left hindlimb of the same mouse. After 7 days of the administration of CTX, the tibialis anterior muscle was collected by dissection, and supplied to the measurement of muscle weight and preparation of a muscle tissue section.
as §3, §4
A muscle tissue section was sufficiently air dried for 30 minutes under room temperature. After that, the muscle tissue sections was fixed by immersing it in acetone cooled to −30° C. and treating at −30° C. for 20 minutes. The fixed sections was air dried once and washed with PBS. Then the section was blocked by dropwisely adding a blocking reagent (Blocking One. NACALAI TESQUE, INC.) to the section and subjected to the blocking treatment for 1 hour. Next, a primary antibody (Anti-laminin-2 (α-2 Chain) antibody Rat monoclonal (Sigma-Aldrich)) obtained by being diluted 500 times with a blocking reagent was added dropwise, and the reaction was conducted at overnight at 4° C. Since laminin to which a primary antibody binds is a protein expressed in the basement membranes of all muscle cells, the laminin was used in this experiment as an index in order to measure the area of individual muscle cells in a section. The muscle tissue section after the reaction with the primary antibody was washed with PBS, and then was reacted for 1 hour with a secondary antibody (CF 488A Goat Anti-Rat IgG (H+L) (Biotium)) obtained by being diluted 500 times with the blocking reagent. The secondary antibody that is an anti-rat antibody conjugated with a fluorescent dye binds to the primary antibody, and stains the laminin. The muscle tissue sections after the reaction with the secondary antibody was washed with PBS, and sealed by using “VECTASHIELD Hard. Set with DAPI” (Vector), and then the fluorescence observation was performed with an inverted microscope FSX100 (Olympus).
The muscle fiber cross-sectional area was measured basis of the image data taken from the fluorescence observation. After the image data was taken into image analysis software ImageJ (NIH), the cross-sectional area of the individual cells were measured on the basis of the cell membrane stained with laminin. For the area measurement, “Analyze Particles” that is an add-in analysis program on ImageJ was used. The measurement results were shown as a distribution chart (histogram) of the areas and number of single-muscle fibers, and as an average value of the cross-sectional areas of all the single muscle fibers (mean muscle fiber area).
In the muscle damage model (Example 3), the regenerated muscle was used as a measurement target. […]

Where [5] appears, read: intraperitoneal, 19.6 mM 10 mL/kg once a day.

On to `Cl.Cl.Cl.NCCCCNCCCN` [SPD, Spermidine trihydrochloride], for which the “muscle weight loss due to hindlimb fixation” value in experiment [1] (196 mM 10 μL once a day, 7 days, **P<0.01) is given as “significant suppression”. The “muscle weight vs Vehicle administration group” value was “significant increase” in experiment [1] (196 mM 10 μL once a day, left hindlimb (fixed: Staple), 7 days after start of fixation) and “significant increase” in experiment [1] (196 mM 10 μL once a day, right hindlimb (sham treatment: Sham), 7 days after start of fixation). Also, in experiment [1] (7 days after start of fixation, ***P<0.001), the “mean muscle fiber area vs Vehicle” value is given as “significant increase”. In addition, the “histogram of single-muscle fiber area vs Vehicle” value in experiment [1] (7 days after start of fixation, whole muscle) was “shifted to the right side”. Besides, the “Trim63 expression suppression (reduction vs Staple, Vehicle)” value in experiment [2] (intramuscular, 196 mM 10 μL once a day, fixed left hindlimb (Staple), *P<0.05) is 65.6%; in experiment [2] (intraperitoneal, 19.6 mM 10 mL/kg once a day, Staple), 42.3%. In addition, in experiment [2] (oral, 30 mM in drinking water), the Trim63 expression suppression entry is listed as “no expression suppression”. In addition, in experiment [3] (intramuscular, 196 mM 10 μL once a day, Staple, **P<0.01), the “Mstn expression suppression (reduction vs Staple, Vehicle)” value is reported as 61.1%. Also, the Mstn expression suppression result in experiment [3] (setting [5]) is “did not show significant expression suppression”; in experiment [3] (oral, 30 mM in drinking water) it was “did not show significant expression suppression”. For the same molecule, the “suppression of muscle weight loss by CTX” value in experiment [4] (intramuscular, 196 mM 10 μL once a day) is “remarkable suppression”; in experiment [4] (setting [5]), “a significant suppression was not observed”; in experiment [4] (oral, 30 mM in drinking water), “a significant suppression was not observed”. Also, the “histogram of regenerated single-muscle fiber area vs Vehicle” value in experiment [4] (intramuscular) is listed as “shifted to the right side”; in experiment [4] (intraperitoneal), “no shift”; in experiment [4] (oral), “no shift”. In addition, the “mean muscle fiber area (regenerated muscle) vs Vehicle” value in experiment [4] (intramuscular, ***P<0.001) is given as “significant increase”; in experiment [4] (intraperitoneal), “no significant increase”; in experiment [4] (oral) it was “no significant increase”.
